Source: patent publication US20110217297A1, “METHODS FOR CLASSIFYING AND TREATING BREAST CANCERS” (priority 2010, published 2011)
Entries after “also recorded” stand apart in the source; their conditions may differ.

Legend:
[1] = test system: breast cancer molecular subtypes I-VI; assay: Metastasis-free and overall survival of breast cancer patients treated with CMF or CAF adjuvant chemotherapy, compared in each molecular subtype (log-rank test); format: in vivo, human; details: for sensitivity / response of the breast cancer subtype to the drug or regimen: molecular subtype IV breast cancer, inferred from CMF vs CAF survival
Text: Patients who had been diagnosed, treated and followed for breast cancer progression between 1991 and 2003 at the Koo Foundation Sun Yat-Sen Cancer Center (KFSYSCC), and had their fresh breast cancer tissue frozen in liquid nitrogen at the institutional tumor bank were identified. […] The study was approved by the institutional review board. Samples deposited in the tumor bank were randomly selected. A total of 447 cases were available. Samples of insufficient RNA (n=1), poor RNA quality (n=116) or unacceptable microarray quality (n=18) were excluded from the study, leaving 312 random samples available (Cohort-1). Gene expression profiles of 15 additional lobular carcinomas of breast collected between 1999 and 2004 were also included in the study (Cohort 2). Thus, the total number of samples was 327.
All statistical analyses were conducted using SAS/STAT software (ver. 9.1.3) (SAS Institute, Inc.) and R software package (v2.6) from Bioconductor. Fisher's exact test was conducted to determine statistical correlation between molecular subtypes and various clinical phenotypes. The exact p values were estimated by Monte Carlo simulation. Log-rank test was used to analyze survival differences between different molecular subtypes or treatment groups.
The breast cancer samples used in this study were collected over a period of more than 10 years. The period covered a major shift of chemotherapy regimen from CMF (cyclophosphamide-methotrexate-fluorouracil) therapy to CAF (cyclophosphamide-adriamycin-fluorouracil) therapy around 1997 and 1998. The cohorts in this study offered a precious opportunity to investigate how different molecular subtypes of breast cancer responded differently to this change of adjuvant chemotherapy regimen.
Metastasis-free and overall survival were compared for patients treated with CMF and CAF for adjuvant therapy in each molecular subtype. […] Nevertheless, the CAF group had more N stage=1 patients and the CMF group had more N stage=0 patients (Table 15b).

tumors = details: TNP-470 below maximum tolerated dose plus cyclophosphamide 170 mg/kg, every 6 days, in combination; cited from earlier work

Compound	treatment results (metastasis-free and overall survival), CAF vs CMF adjuvant chemotherapy ([1]; molecular subtype IV breast cancer patients, adjuvant chemotherapy after surgery)	sensitivity / response of the breast cancer subtype to the drug or regimen [1]	tumor response to the treatment regimen (tumors)
COc1cccc2c1C(=O)c1c(O)c3c(c(O)c1C2=O)C[C@@](O)(C(=O)CO)C[C@@H]3O[C@H]1C[C@H](N)[C@H](O)[C@H](C)O1 [adriamycin, doxorubicin]	dramatic impact; also recorded: significantly improved	very sensitive	–
O=P1(N(CCCl)CCCl)NCCCO1 (centres unmarked) [cyclophosphamide]	–	–	complete regression
CN(Cc1cnc2nc(N)nc(N)c2n1)c1ccc(C(=O)N[C@@H](CCC(=O)O)C(=O)O)cc1 [methotrexate]	–	relatively insensitive	–
CO[C@@H]1[C@H](OC(=O)NC(=O)CCl)CC[C@]2(CO2)[C@H]1[C@@]1(C)O[C@@H]1CC=C(C)C [TNP-470]	–	–	complete regression
